Read-outs that look alike come from different tables or passages of the source. Starred links: 1 amine or outer side, 2 acyl side, 3 side chain; linkers in the order of their positions; H or OH if unused. Non-standard residues stand in square brackets, D forms with d. Residues, ends and D or L forms follow the SMILES beside them. *: point of attachment. Exatecan = CC[C@@]1(O)C(=O)OCc2c1cc1n(c2=O)Cc2c-1nc1cc(F)c(C)c3c1c2[C@@H](N*)CC3; X1 = O=C(O)CNC[C@@H](C(=O)*)N1C(=O)C=CC1=O; X2 = C[C@H](OCN[*:1])C(=O)[*:2]
Assays:
Fadu = assay: In vitro efficacy of naked antibodies and Compound d3, d38, d39 and d44, MTS; format: cell-based; settings: Homo sapiens, 1 uM starting concentration
Method: (§1) In a 96-well plate, cells were plated at an appropriate cell density. After 24 h, the drugs were added. After 24 h, the drugs were diluted with the test medium (1 uM starting concentration, 5-fold dilution, 9 concentrations, test medium was added in the tenth column as blank control). The diluted drugs were added to the corresponding cell wells and then shaken for 3 min with a microplate shaker (model: MX100-4A) at a shaking speed of 550 rpm/min. After shaking, the cells were incubated in a carbon dioxide incubator for […].
(§2) After 4 days, the MTS reagent was taken out, thawed at room temperature in the dark, and vortex mixed thoroughly. […] The cells were incubated for 2 h in the dark in an incubator. After the reaction, the 96-well plate was taken out for testing the OD490 nm absorption on an elisa plate, and the test data were recorded, organized, analyzed and stored.

HCC827 = assay: as above; format: cell-based; settings: Homo sapiens, 1 uM starting concentration
Method: as §1, §2

N87 = assay: as above; format: cell-based; settings: Homo sapiens, 1 uM starting concentration
Method: as §1, §2

SW620 + A431 = assay: as above; format: cell-based; settings: Homo sapiens, 1 uM starting concentration
Method: as §1, §2

SW620 = assay: as above; format: cell-based; settings: Homo sapiens, SW-620, 1 uM starting concentration
Method: as §1, §2

[1] = Method: The mixture of an ADC and IgG-depleted plasma were formulated with the final concentration of ADC being 0.6 mg/mL. The plasma mixture was incubated in a water bath box in a 37° C. incubator. The incubation time was set to 0 days, 3 days, and 7 days. At the same time, the unincubated plasma control was set. The incubated sample was purified and extracted and then tested for the DAR to reflect the stability of the ADC in plasma.
[2] = molecular target: T1, recombinant TROP2-His*6 antigen (Homo sapiens, UniProt P09758); assay: Double-antigen sandwich ELISA, relative affinity to TROP2; format: binding; settings: OD450 nm, EC50 compared
T1 construct: His*6
T1 sequence (P09758 27-323): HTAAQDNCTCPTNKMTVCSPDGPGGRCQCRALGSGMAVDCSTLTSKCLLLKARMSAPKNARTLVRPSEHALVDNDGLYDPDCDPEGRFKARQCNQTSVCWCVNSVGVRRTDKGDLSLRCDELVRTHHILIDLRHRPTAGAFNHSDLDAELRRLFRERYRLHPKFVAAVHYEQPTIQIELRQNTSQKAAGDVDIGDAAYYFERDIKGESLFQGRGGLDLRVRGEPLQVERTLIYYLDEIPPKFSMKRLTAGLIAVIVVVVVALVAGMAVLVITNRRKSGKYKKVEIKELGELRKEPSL
Method: The recombinant TROP2-His*6 antigen was coated on the plate and then blocked with 1% bovine serum albumin; hu4D3 and the corresponding ADC and TINA1 and the corresponding ADC were diluted respectively, and then serially diluted 3 folds at a starting concentration of 2000 ng/mL respectively, for a total of 11 concentrations. After the sample was incubated on the coated elisa plate for a period of time, the secondary antibody labeled by goat anti-human Fc-HRP was added for incubation. Finally, TMB color development was performed and terminated by sulfuric acid solution, and the absorption value at 450 nm was detected on an elisa plate. The results are plotted on concentration at OD450 nm.

[3] = system: human tumor cell line (BxPC-3); assay: In vitro drug efficacy of antibodies and ADCs, MTS cell viability; format: cell-based; settings: BxPC-3, 5 days
Method: In the present invention, a human tumor cell line (BxPC-3) was used as an experimental model to evaluate the in vitro efficacy of ADCs. A certain number of tumor cells were inoculated into a 96-well plate, and gradient dilutions of the test antibody and the corresponding ADC were added to the cells, the cells were treated for 5 days, cell viability was detected by using MTS, and IC50 was calculated to evaluate the in vitro inhibitory effect of the test antibody and ADCs on the tumor cell line. The cells were treated for 5 days with the antibody drugs having initial concentration of 500 nM, diluted 7 folds, with a total of 8 concentration points. Finally, the cell survival was calculated as: survival rate=(experimental group-blank group)/(control group-blank group)×100%. Then, by using Graph Pad Prism, the curve was fitted and the half inhibitory concentration (IC50) was calculated.

[4] = humans; cited from earlier work
[5] = mice; cited from earlier work
[6] = in vivo; cited from earlier work
[7] = system: Human non-small cell lung adenocarcinoma cell H1975; assay: In vitro inhibitory effect of Compound 5A, MTS; format: cell-based
Method: (§3) The UV light of the biosafety cabinet was turned on 30 min in advance, and then the ventilation system was enabled for 3 min. The growth medium, the detection medium, D-PBS and trypsin were preheated in a 37° C. constant-temperature water bath, and then had surface disinfected with alcohol and then placed in the biosafety cabinet. The cells with a confluence rate of about 80% were placed in the biosafety cabinet, the old culture medium was removed, the cells were rinsed with D-PBS, and the D-PBS was then discarded. The cells were digested with trypsin for 2-3 min, then neutralized with the growth medium and centrifuged at 1200 rpm for 3 min, and the supernatant was removed. The cell solution was mixed with 4 mL of test medium, and 100 μL of cell solution was taken for counting (where 50 μL of cell solution was well mixed with 50 μL of Trypan Blue Stain and then counted). According to a pre-optimized cell plating density, the cells were plated in a 96-well plate at 80 ul/well. […] After 24 hours of plating, diluted antibodies were added with 20 uL per well and control was set. Only 20 μL of test medium was added to cells in column 11. Two duplicate wells were set at each concentration. The cells were then well mixed on the cell vortex shaker at 550 rpm for 3 min.
(§4) 240 μL of test medium was added to the subsequent columns 2 to 10. 60 μL of the well mixed test solution was taken from the first column and added to the second column, and the cell solution was mixed up and down with a pipette for 10 times, and then the pipette tip was discarded. The same operation was performed for other seven concentrations one by one.
(§5) After 4 days, the MTS reagent was taken out, thawed at room temperature in the dark, and vortex mixed thoroughly. In the biosafety cabinet, 20 μL of CellTiter One Solution Reagen MTS reagent was added per 100 μL cell culture volume along the side wall of each well, and the plate surface was gently tapped to well mix the MTS solution. The cells were incubated for 2 h in the dark in an incubator. After the reaction, the 96-well plate was taken out for testing the OD490 nm absorption on an elisa plate, and the test data were recorded, organized, analyzed and stored.

[8] = system: human breast cancer cell MDA-MB-361; assay: In vitro inhibitory effect of Compound 5A, MTS; format: cell-based
Method: as §3, §4, §5

[9] = system: human breast cancer cell SK-BR-3; assay: In vitro inhibitory effect of Compound 5A, MTS; format: cell-based
Method: as §3, §4, §5

[10] = system: human breast cancer cell ZR-75-1; assay: In vitro inhibitory effect of Compound 5A, MTS; format: cell-based
Method: as §3, §4, §5

[11] = system: human epidermal cancer cell A431 + human colon cancer cell SW620; assay: In vitro inhibitory effect of Compound 5A, MTS; format: cell-based
Method: as §3, §4, §5

[12] = system: human epidermal cancer cell A431; assay: In vitro inhibitory effect of Compound 5A, MTS; format: cell-based
Method: as §3, §4, §5

[13] = system: human gastric cancer cell NCI-N87; assay: In vitro inhibitory effect of Compound 5A, MTS; format: cell-based
Method: as §3, §4, §5

[14] = system: human leukemia cell JJN-3; assay: In vitro inhibitory effect of Compound 5A, MTS; format: cell-based
Method: as §3, §4, §5

[15] = system: human multiple myeloma cell RPMI8226; assay: In vitro inhibitory effect of Compound 5A, MTS; format: cell-based
Method: as §3, §4, §5

[16] = system: human non-small cell lung cancer cell HCC827; assay: In vitro inhibitory effect of Compound 5A, MTS; format: cell-based
Method: as §3, §4, §5

[17] = system: human orthotopic pancreatic adenocarcinoma cell BXPC-3; assay: In vitro inhibitory effect of Compound 5A, MTS; format: cell-based
Method: as §3, §4, §5

[18] = system: human plasma cell leukemia cell H929; assay: In vitro inhibitory effect of Compound 5A, MTS; format: cell-based
Method: as §3, §4, §5

[19] = Percentage of monomer of ADCs by SEC-HPLC; format: physicochemical
Method: • Chromatography column: Biocore SEC-300 5 μm, 4.6×300 mm; • Manufacturer: NanoChrom, Product code: B213-050030-04630S; • Mobile phase: 50 mM PB+300 mM NaCl+200 mM Arg+5% IPA, pH=6.5;
• Chromatography column: ACQUITY UPLC Protein SEC 4.6×150 mm […] • Manufacturer: waters Product code: 186005225 • Mobile phase: 50 mM PB+300 mM NaCl+200 mM Arg+5% IPA, pH=6.5

Molecule `CC[C@@]1(O)C(=O)OCc2c1cc1n(c2=O)Cc2c-1nc1cc(F)c(C)c3c1c2[C@H](NC(=O)C1(CO)CCC1)CC3` [d44] has an IC50 (Fadu) of 0.029 nM, an IC50 (HCC827) of 0.038 nM and an IC50 (N87) of 0.197 nM. For the same molecule, the IC50 (SW620 + A431) was 0.182 nM and the IC50 (SW620) was 0.014 nM.

Molecule `CC[C@@]1(O)C(=O)OCc2c1cc1n(c2=O)Cc2c-1nc1cc(F)c(C)c3c1c2[C@@H](NC(=O)[C@H](C)O)CC3` [d3] has an IC50 (Fadu) of 0.531 nM, an IC50 (HCC827) of 0.778 nM and an IC50 (N87) of 1.61 nM. It also gave an IC50 (SW620 + A431) of 2.81 nM and an IC50 (SW620) of 0.543 nM.

For DS1062a [reference compound], the “plasma stability (in words)” value ([1]; change in DAR during incubation in plasma) was “poor plasma stability”, the “affinity for antigen TROP2 compared with the corresponding antibody” value [2] was “maintains the same affinity” and the IC50 [3] was 308 nM.

For IMMU-132, the elimination half-life [4] is given as “about 11 h”, the elimination half-life [5] is given as “about 11 h” and the mean residence time [6] is given as “about 15.4 h”.

Work on `CC[C@@]1(O)C(=O)OCc2c1cc1n(c2=O)Cc2c-1nc1cc(F)c(C)c3c1c2[C@@H](NC(=O)[C@H](C)OCNC(=O)CNC(=O)[C@H](Cc1ccccc1)NC(=O)CNC(=O)CNC(=O)[C@H](CNCC(=O)O)N1C(=O)C=CC1=O)CC3` [Compound 5A] (X1-GGFG[X2]-Exatecan) yielded an Efficacy % ([7]; H1975) of 76.78%, an IC50 ([7]; Homo sapiens, NCI-H1975, 96 h, H1975, 4 days, MTS) of 970 nM and an IC50 ([8]; Homo sapiens, 96 h, MDA-MB-361, 4 days, MTS) of 572 nM. The Efficacy % ([8]; MDA-MB-361) was 62.34%, the IC50 ([9]; Homo sapiens, 96 h, SK-BR-3, 4 days, MTS) was 732 nM and the Efficacy % ([9]; SK-BR-3) was 70.9%. For the same molecule, the IC50 ([10]; Homo sapiens, 96 h, ZR-75-1, 4 days, MTS) was 558 nM, the Efficacy % ([10]; ZR-75-1) was 54.79% and the Efficacy % ([11]; A431 + SW620) was 68.26%. The IC50 ([11]; Homo sapiens, 96 h, A431 + SW620, 4 days, MTS) was 605 nM, the Efficacy % ([12]; A431) was 84.97% and the IC50 ([12]; Homo sapiens, A-431, 96 h, A431, 4 days, MTS) was 439 nM. For the same molecule, the IC50 ([13]; Homo sapiens, 96 h, NCI-N87, 4 days, MTS) was 1020 nM, the Efficacy % ([13]; NCI-N87) was 63.93% and the IC50 ([14]; Homo sapiens, 96 h, JJN-3, 4 days, MTS) was 36.1 nM. For the same molecule, the Efficacy % ([14]; JJN-3) was 80.59%, the IC50 ([15]; Homo sapiens, RPMI-8226, 96 h, RPMI8226, 4 days, MTS) was 147 nM and the Efficacy % ([15]; RPMI8226) was 93.61%. It also gave an Efficacy % ([16]; HCC827) of 80.57%, an IC50 ([16]; Homo sapiens, 96 h, HCC827, 4 days, MTS) of 656 nM and an Efficacy % ([17]; BxPC-3) of 64.4%. For the same molecule, the IC50 ([17]; Homo sapiens, 96 h, BxPC-3, 4 days, MTS) was 320 nM, the Efficacy % ([18]; H929) was 99.03% and the IC50 ([18]; Homo sapiens, NCI-H929, 96 h, H929, 4 days, MTS) was 23.9 nM.

With `CC[C@@]1(O)C(=O)OCc2c1cc1n(c2=O)Cc2c-1nc1cc(F)c(C)c3c1c2[C@H](NC(=O)[C@@H](O)C1CC1)CC3` [d39] the IC50 (Fadu) was 0.11 nM, the IC50 (HCC827) was 0.092 nM and the IC50 (N87) was 0.466 nM. The IC50 (SW620 + A431) was 0.468 nM and the IC50 (SW620) was less than 0.005 nM.

For DS1062a (DAR = 4), the Aggregate % [19] was 3.431%, the Degradation % [19] was 0.108% and the Monomer % [19] was 96.461%. The “DAR Incubated in plasma for 0 days” value ([1]; ADC 0.6 mg/mL in IgG-depleted plasma, 37° C., 0 days) was 4.21, the “DAR Incubated in plasma for 3 days” value ([1]; ADC 0.6 mg/mL in IgG-depleted plasma, 37° C., 3 days) was 3.75 and the “DAR Incubated in plasma for 7 days” value ([1]; ADC 0.6 mg/mL in IgG-depleted plasma, 37° C., 7 days) was 3.30. For the same molecule, the “DAR Unincubated” value ([1]; unincubated control) was 4.13.

— patent US20250205349A1, “ANTI-HUMAN TROP2 ANTIBODY-CAMPTOTHECIN DRUG CONJUGATE AND MEDICAL USE THEREOF” (SYSTIMMUNE, INC., priority 2021, published 2025)
